Experimental data from patent US10815235B2, “Polycyclic compounds and uses thereof” (priority 2017, dated 2020).
Like-named read-outs stand apart in the source and are kept apart here.

Tests used:
[1] = molecular target: T1, Serotonin 5-HT2B receptor (Homo sapiens, UniProt P41595); test: IPOne HTRF assay, agonist and antagonist mode; assay type: cell-based
T1 construct: expressed in transfected cells; host or cells: CHO-K1
Procedure: Antagonist and agonist activities were determined using an IPOne […] HTRF assay. The assay was prepared as follows: CHO-K1 cells expressing human recombinant Adrenergic α1A, Serotonin 5-HT2A, and 5-HT2B receptors grown to mid-log phase in culture media without antibiotics were detached with PBS-EDTA, centrifuged and resuspended in medium without antibiotics buffer. 20,000 cells were distributed in a 96 well plate and incubated overnight at 37° C. with 5% CO2.
To analyze agonist activity, the medium was removed and 20 μl of assay buffer plus 20 μl of test compound or reference agonist were added in each well. The plate was incubated for 60 min. at 37° C. with 5% CO2. EC50 values were used to determine whether a compound acted as an agonist.
To analyze antagonist activity, 20 μl of test compound or reference antagonist was added and the plate is incubated for 15 min. at 37° C. in a humidified atmosphere of 95% air with 5% CO2, then 20 μl of reference agonist at a final concentration corresponding to the historical EC80 is added. The plate is incubated for 60 min. at 37° C. with 5% CO2. IP1-D2 reagent and anti-IP1 cryptate reagents are then dispensed in the wells and IP1 concentrations are then measured following the manufacturer recommendations. IC50 values were used to determine whether a compound acted as an antagonist.

[2] = molecular target: Serotonin 5-HT1D receptor (Homo sapiens, UniProt P28221); test: GTPγS Scintillation Proximity Assay, agonist and antagonist mode; assay type: biochemical
Serotonin 5-HT1D receptor, sequence (P28221 whole entry): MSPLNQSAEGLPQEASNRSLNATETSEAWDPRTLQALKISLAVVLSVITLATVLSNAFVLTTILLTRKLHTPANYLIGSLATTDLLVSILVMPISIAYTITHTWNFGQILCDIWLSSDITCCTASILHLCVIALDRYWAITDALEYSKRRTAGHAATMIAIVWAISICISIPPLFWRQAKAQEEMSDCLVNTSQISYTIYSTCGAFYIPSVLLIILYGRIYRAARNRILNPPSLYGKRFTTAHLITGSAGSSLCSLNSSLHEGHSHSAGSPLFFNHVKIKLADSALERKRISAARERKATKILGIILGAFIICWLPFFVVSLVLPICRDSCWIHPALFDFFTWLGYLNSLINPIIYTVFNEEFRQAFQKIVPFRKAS
Procedure: Antagonist and agonist activities were determined using a GTPγS Scintillation Proximity Assay. The assay was prepared as follows: Membrane extracts were prepared from recombinant human Dopamine D2L, D3; Serotonin 5-HT1A, 5-HT1B, 5-HT1D and 5-HT1F receptors.
Samples were tested by proprietary biological assays by Ogeda S. A., Euroscreen FAST Business Unit, Rue Adrienne Bolland, 47 B-6041 Gosselies, Belgium. Each protein assay was prepared using the following conditions.
5-HT1D • Assay buffer: 20 mM HEPES pH 7.4; 200 mM NaCl, 10 μg/ml saponin, 3 mM MgCl2; • Membranes: recombinant 5-HT1D membrane extracts thawed on ice and diluted in assay buffer to give […] and kept on ice; • GDP: diluted in assay buffer to give a 30 μM working solution (3 μM final concentration); • Beads: PVT-WGA (Perkin Elmer, RPNQ001), diluted in assay buffer at 50 mg/ml (0.5 mg/10 μl); and • GTPγ^35S: (PerkinElmer NEG030X), diluted in assay buffer to give 0.1 nM.
Membranes were mixed with GDP (volume:volume 1:1) and incubated for at least 15 min on ice. In parallel, GTPγ[^35S] is mixed with the beads (volume:volume 1:1) just before starting the reaction.
To determine agonist activity, the following reagents were added in the wells of an Optiplate (Perkin Elmer): 50 μL of test or reference ligand, 10 μL of assay buffer, 20 μl of the membranes:GDP mix, and 20 μL of the GTPγ[^35S]:beads mix. EC50 values were used to determine whether a compound acted as an agonist.
To determine antagonist activity, the following reagents were added in the wells of an Optiplate (Perkin Elmer): 50 μL of test or reference ligand, 20 μL of the membranes:GDP mix, then the plate is incubated 15 minutes at room temperature. After incubation, 10 μL of reference agonist at historical EC80 (final concentration) was added, followed by 20 μL of the GTPγ[^35S]:beads mix.
The plates were covered with a top seal, mixed on an orbital shaker for 2 min, and then incubated for 1 hour at room temperature. Then the plates were centrifuged for 10 min at 2000 rpm, incubated at room temperature 1 hour and counted for 1 min/well with a PerkinElmer TopCount reader. IC50 values were used to determine whether a compound acted as an antagonist.

T1 sequence (P41595 whole entry): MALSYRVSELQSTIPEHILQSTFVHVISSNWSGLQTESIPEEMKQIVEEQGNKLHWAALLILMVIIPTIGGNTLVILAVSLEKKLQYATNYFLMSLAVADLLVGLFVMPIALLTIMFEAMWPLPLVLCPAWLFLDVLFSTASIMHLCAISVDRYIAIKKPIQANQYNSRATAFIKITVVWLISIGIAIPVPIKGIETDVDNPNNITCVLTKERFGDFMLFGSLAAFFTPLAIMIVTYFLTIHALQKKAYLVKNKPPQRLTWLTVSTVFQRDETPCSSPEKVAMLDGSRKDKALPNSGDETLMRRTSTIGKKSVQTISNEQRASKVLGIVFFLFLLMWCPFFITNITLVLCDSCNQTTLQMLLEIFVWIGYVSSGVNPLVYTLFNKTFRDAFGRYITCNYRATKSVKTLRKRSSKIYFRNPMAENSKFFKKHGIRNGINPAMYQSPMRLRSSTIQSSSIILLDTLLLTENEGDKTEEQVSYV

SMILES: CC[C@@H](CO)NC(=O)[C@@H]1C=C2c3cccc4c3c(c(C3CC3)n4C)C[C@H]2N(C)C1 [Compound D13, (6aR,9R)-5-cyclopropyl-N—((S)-1-hydroxybutan-2-yl)-4,7-dimethyl-4,6,6a,7,8,9-hexahydroindolo[4,3-fg]quinoline-9-carboxamide]
- IC50 ([1]; CHO-K1 cells, vs reference agonist at EC80, read-out: Antagonist Activity (IC50), 5-HT2B): 140 nM
- IC50 ([1]; antagonist mode, bound stated, read-out: IC50 value for the Serotonin 5-HT2B receptor): < 1000 nM
- EC50 ([2]; Agonist Activity (EC50), 5-HT1D, membrane extracts): 730 nM
- EC50 ([2]; EC50 value for the Serotonin 5-HT1D receptor, agonist mode, bound stated): < 1000 nM
